Experimental data published in US10239856B2, “Synthesis of resorcylic acid lactones useful as therapeutic agents” (UNIVERSITY DE STRASBOURG, priority 2008, dated 2019).
Where two headings read alike, the source gives them in different places.

Columns and labels:
[1] = target: HSP90α (Homo sapiens, UniProt P07900); assay: Affinity to HSP90α; assay type: binding
[2] = tested on: Her-2 (HSP90 client); assay: Her-2 (HSP90 client) degradation (client depletion); assay type: cell-based
Method: A number of the compounds of the invention were tested for affinity to HSP90α (see Kim et al., J. Biomol. Screen., 2004, 9, 375), Her-2 (HSP90 client) degradation (see Xu et al., J. Biol. Chem., 2001, 276, 3702), and cytotoxicity against SKBr3 and HCC1954, two breast cancer cell lines which over express Her-2.

[3] = tested on: SKBr3; assay: Cytotoxicity against SKBr3 breast cancer cells; assay type: cell-based; details: Homo sapiens, SK-BR-3, first value of cell
Method: (§1) Compounds of the invention were assayed for cytotoxicity in HCC1954 and SK-BR-3 tumor cells.

[4] = tested on: HCC1954; assay: Cytotoxicity against HCC1954 breast cancer cells; assay type: cell-based; details: Homo sapiens, second value of cell
Method: as §1

[5] = tested on: ErbB2 in SK-BR3; assay: Degradation of HSP90 client ErbB2 in SK-BR3, Western blotting after 18 hrs treatment; assay type: cell-based; details: SK-BR3, 18 hrs treatment, E-oxime isomer
[6] = tested on: BT-474 (breast tumor cell line) xenograft; assay: BT-474 breast tumor xenograft in CB17/SCID mice; assay type: in vivo; parameters: Regression in tumor volume / Inhibition of tumor growth: dose or concentration left out as unconfirmed
Method: FIG. 1 depicts the tumor volume and animal weight change following treatment with compound 13a or control vehicle. Each point represents the mean of measurements from 5 (for vehicle) or 6 (for 13a) animals. The experiment was carried out for 28 days and tumor volumes were determined weekly by caliper measurement. Student's t-test was used to determine the statistical analysis of the difference between tumor volumes of vehicle-treated and drug-treated animals. Individual body weights were also determined weekly. Statistical significance was achieved (comparing tumor volumes in vehicle-treated and drug-treated animals) at day 21 for the q4d schedule (p=0.0497). In comparison, on the q2d schedule increasing statistical significance was achieved on days 14, 21, and 28, when comparing tumor volume of vehicle-treated and drug-treated animals (p=0.012, p=0.007, and p=0.0002, respectively).
Top panels represent hematoxylin & eosin (H & E) stained paraffin sections. Nuclei appear blue in color. The dark blue condensed nuclei in drug-treated tumors (right) are consistent with apoptotic cells. […] Bottom panels represent TUNEL (terminal deoxynucleotidyl transferase-mediated dUTP-biotin nick end labeling)-stained paraffin sections. The high preponderance of reddish-pink nuclei (positive for TUNEL staining) in the drug-treated tumors reflects DNA fragmentation which is characteristic of apoptosis. Blue arrowheads point to characteristic TUNEL positive nuclei.
Two schedules of 100 mg every other day (q2d) or every four days (q4d) during 28 days were investigated.
Based on the in vitro data shown in Table 3, compound 13a was further evaluated in vivo.

[7] = tested on: HSP90; details: cited from earlier work
[8] = Her-2 degradation; read-out: Client Depletion
[9] = read-out: Client Depletion; Her-2 degradation

| Compound | IC50 ([1]; read-out: HSP90 affinity) | IC50 [2, 8] | IC50 [3] | IC50 [4] | Reduction of ErbB2 concentration compared with radicicol and 17-AAG [5] | Weight loss ([6]; q2d and q4d schedules, 28 days) | Inhibition of tumor growth ([6]; q2d or q4d during 28 days) | Regression in tumor volume ([6]; q2d schedule, 28 days) | Tumor histology: cellularity ([6]; q2d schedule, 28 days) | Tumor nuclear TUNEL staining (apoptosis) ([6]; q2d schedule, 28 days) | Inhibitor of HSP90 [7] | IC50 ([1]; HSP90 affinity) | IC50 [2, 9] |
| --- | --- | --- | --- | --- | --- | --- | --- | --- | --- | --- | --- | --- | --- |
| O=C1OCC/C=C/CC/C=C/C(=N/OCC(=O)N2CCCCC2)Cc2c(Cl)c(O)cc(O)c21 [13a] | 21 nM | 35 nM | 125 nM | 320 nM | significantly more effective than both radicicol and 17-AAG | Neither the q2d nor the q4d schedules resulted in significant weight loss | dose-dependent inhibition of the tumor growth | 18% | dramatic loss of cellularity | high degree of nuclear TUNEL staining | – | – | – |
| C[C@@H]1CC2O[C@@H]2CC/C=C/C(=O)Cc2c(Cl)c(O)cc(O)c2C(=O)O1 (some centres unmarked) [pochonin A] | – | – | – | – | – | – | – | – | – | – | 90 nM | – | – |
| C[C@@H]1C/C=C/CC/C=C/C(=N/OCC(=O)N2CCCCC2)Cc2cc(O)cc(O)c2C(=O)O1 [13c] | – | – | 450 nM | 630 nM | significantly more effective than both radicicol and 17-AAG | – | – | – | – | – | – | 18 nM | 26 nM |
| O=C1OCC/C=C/CC/C=C/C(=N/OCC(=O)N2CCCCC2)Cc2cc(O)cc(O)c21 [13b] | – | – | 120 nM | 220 nM | significantly more effective than both radicicol and 17-AAG | – | – | – | – | – | – | 15 nM | 50 nM |
| O=C(CON=C1/C=C/CC/C=C/CCOC(=O)c2c(O)cc(O)c(Cl)c2C1)NCc1ccccc1 [13j] | 110 nM | 5500 nM | 3500 nM | 8500 nM | – | – | – | – | – | – | – | – | – |
| O=C1OCC/C=C/CC/C=C/C(=N\OCC(=O)N2CCCCC2)Cc2c(Cl)c(O)cc(O)c21 [14a] | 1800 nM | > 10000 nM | > 10000 nM | 5200 nM | – | – | – | – | – | – | – | – | – |
